Assay results reported in ChEMBL document CHEMBL6177948, “Discovery of potential Leonurine-based therapeutic lead MJ210 attenuates Parkinson's disease pathogenesis via NF-κB and MAPK pathways: Mechanistic insights from in vitro and in vivo rotenone models” (Eur J Med Chem, 2025).
Activity calls are given as the source filed them. The calls are words filed in the database; no cut-off is given here.

Legend:
SH-SY5Y [1] = test: Neuroprotective activity against rotenone-induced cytotoxicity in human SH-SY5Y cells assessed as increase in cell viability at 1 to 20 uM incubated for 24 hrs by MTT assay relative to control; assay type: functional; conditions: dose 1-20 µM
SH-SY5Y [2] = test: Neuroprotective activity against rotenone-induced ROS formation in human SH-SY5Y cells assessed as decrease in ROS level at 5 uM preincubated with compound for 24 hrs followed by rotenone addition by H2DCFDA staining based fluorescence microscopic analysis; assay type: functional, cell-based
SH-SY5Y [3] = test: Neuroprotective activity against rotenone-induced ROS formation in human SH-SY5Y cells assessed as reduction in ROS level by measuring fluorescence intensity at 5 uM preincubated with compound for 24 hrs followed by rotenone addition and measured after 24 hrs by CellRox reagent based fluorescence microscopic analysis; assay type: functional, cell-based; conditions: time 48.0 hrs
SH-SY5Y [4] = test: Anti-apoptotic activity in rotenone-induced human SH-SY5Y cells assessed as increase in Bcl-xL expression by Western blotting analysis; assay type: functional, cell-based
SH-SY5Y [5] = test: Anti-apoptotic activity in rotenone-induced human SH-SY5Y cells assessed as reduction in Caspase-3 expression by Western blotting analysis; assay type: functional, cell-based
SH-SY5Y [6] = test: Reversal of rotenone-induced mitochondrial membrane depolarization in human SH-SY5Y cells assessed as increase in JC-10 aggregation by measuring red fluorescence at 5 uM preincubated with compound for 24 hrs followed by rotenone addition and measured after 24 hrs by JC-10 based fluorescence microscopic analysis; assay type: functional, cell-based
SH-SY5Y [7] = test: Neuroprotective activity against rotenone-induced mitochondrial ROS generation in human SH-SY5Y cells assessed as decrease in ROS level at 5 uM preincubated with compound for 24 hrs followed by rotenone addition and measured after 24 hrs by MitoSOX red staining based fluorescence microscopic analysis; assay type: functional, cell-based; conditions: time 48.0 hrs
[8] = target: Transcription factor p65 (Homo sapiens) (UniProt Q04206); test: Inhibition of rotenone-induced NFkappaB p65 translocation from cytosol to nucleus in human SH-SY5Y cells pretreated with compound followed by rotenone addition by DAPI staining based immunocytochemistry analysis; assay type: cell-based
Sequence of Transcription factor p65 (Homo sapiens) (Q04206 whole entry): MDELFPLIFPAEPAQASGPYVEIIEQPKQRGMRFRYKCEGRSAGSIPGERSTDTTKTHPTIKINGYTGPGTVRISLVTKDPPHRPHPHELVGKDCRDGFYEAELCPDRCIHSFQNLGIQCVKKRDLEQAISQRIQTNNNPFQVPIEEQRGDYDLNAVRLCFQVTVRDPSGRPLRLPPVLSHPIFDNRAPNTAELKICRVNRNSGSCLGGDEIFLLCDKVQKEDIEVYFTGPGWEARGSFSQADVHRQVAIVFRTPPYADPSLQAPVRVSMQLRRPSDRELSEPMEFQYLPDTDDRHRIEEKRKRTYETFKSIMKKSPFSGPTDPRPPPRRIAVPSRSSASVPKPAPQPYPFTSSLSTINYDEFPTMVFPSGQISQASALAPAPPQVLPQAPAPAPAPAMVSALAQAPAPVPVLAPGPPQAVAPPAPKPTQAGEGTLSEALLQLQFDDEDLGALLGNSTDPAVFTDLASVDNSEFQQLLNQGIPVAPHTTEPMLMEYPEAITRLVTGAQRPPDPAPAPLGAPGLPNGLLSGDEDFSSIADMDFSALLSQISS

SH-SY5Y [9] = test: Anti-inflammatory activity against rotenone-induced human SH-SY5Y cells assessed as reduction in CoX-2 mRNA expression level by RT-qPCR analysis; assay type: functional, cell-based
Rattus norvegicus [10] = test: Anti-parkinson activity in rotenone-induced male Wistar rat model assessed as prevention of rotenone-induced dopaminergic neuronal death at 5 mg/kg, ip by immunoblotting analysis; assay type: functional, organism-based
Rattus norvegicus [11] = test: Anti-parkinson activity in rotenone-induced male Wistar rat model assessed as increase TH expression in striatum at 5 mg/kg, ip pretreated with compound every alternative days followed by rotenone addition and measured after 42 days by Western blotting analysis; assay type: functional, organism-based; conditions: time 42.0 day
Rattus norvegicus [12] = test: Anti-parkinson activity in rotenone-induced male Wistar rat model assessed as increase DAT expression in striatum at 5 mg/kg, ip pretreated with compound every alternative days followed by rotenone addition and measured after 42 days by Western blotting analysis; assay type: functional, organism-based; conditions: time 42.0 day
Rattus norvegicus [13] = test: Anti-parkinson activity in rotenone-induced male Wistar rat model assessed as improvement in t-turn metrics at 5 mg/kg, ip pretreated with compound every alternative days followed by rotenone addition and measured after 42 days by pole test; assay type: functional, organism-based; conditions: time 42.0 day
Rattus norvegicus [14] = test: Anti-parkinson activity in rotenone-induced male Wistar rat model assessed as improvement in bradykinesia at 5 mg/kg, ip pretreated with compound every alternative days followed by rotenone addition and measured after 42 days by pole test; assay type: functional, organism-based; conditions: time 42.0 day
Rattus norvegicus [15] = test: Anti-parkinson activity in rotenone-induced male Wistar rat model assessed as decrease in fall time at 5 mg/kg, ip pretreated with compound every alternative days followed by rotenone addition and measured after 42 days by inverted grid test; assay type: functional, organism-based; conditions: time 42.0 day
Rattus norvegicus [16] = test: Anti-parkinson activity in rotenone-induced neurodegeneration in male Wistar rat model assessed as reduced edema in cortex at 5 mg/kg, ip pretreated with compound every alternative days followed by rotenone addition and measured after 42 days by H and E staining based analysis; assay type: functional, organism-based; conditions: time 42.0 day
Rattus norvegicus [17] = test: (§1) Anti-parkinson activity in rotenone-induced neurodegeneration in male Wistar rat model assessed as decrease count of pyknotic cells in cortex at 5 mg/kg, ip pretreated with compound every alternative days followed by rotenone addition and measured after 42 days by H and E staining based analysis; assay type: functional, organism-based; conditions: time 42.0 day
Rattus norvegicus [18] = test: as §1, with “substantia nigra” for “cortex”; assay type: functional, organism-based; conditions: time 42.0 day
Rattus norvegicus [19] = test: Anti-parkinson activity in rotenone-induced neurodegeneration in male Wistar rat model assessed as decrease neuronal damage in substantia nigra at 5 mg/kg, ip pretreated with compound every alternative days followed by rotenone addition and measured after 42 days by Nissl staining based analysis; assay type: functional, organism-based; conditions: time 42.0 day
Rattus norvegicus [20] = test: Anti-parkinson activity in rotenone-induced neurodegeneration in male Wistar rat model assessed as decrease neuronal damage in striatum at 5 mg/kg, ip pretreated with compound every alternative days followed by rotenone addition and measured after 42 days by Nissl staining based analysis; assay type: functional, organism-based; conditions: time 42.0 day
Rattus norvegicus [21] = test: Anti-parkinson activity in rotenone-induced male Wistar rat assessed as increase in TH positive fiber density in […] at 5 mg/kg, ip pretreated with compound every alternative days followed by rotenone addition and measured after 42 days by immunofluorescence staining based analysis; assay type: functional, organism-based; conditions: time 42.0 day
Rattus norvegicus [22] = test: Anti-parkinson activity in rotenone-induced male Wistar rat assessed as increase in TH positive fiber density in striatum at 5 mg/kg, ip pretreated with compound every alternative days followed by rotenone addition and measured after 42 days by immunofluorescence staining based analysis; assay type: functional, organism-based; conditions: time 42.0 day
Rattus norvegicus [23] = test: (§2) In vivo inhibition of MAPK signaling pathway in rotenone-induced parkinson disease male Wistar rat model assessed as reduction in ERK1/2 phosphorylation level in substantia nigra at 5 mg/kg, ip pretreated with compound every alternative days followed by rotenone addition and measured after 42 days by Western blotting analysis; assay type: functional, organism-based; conditions: time 42.0 day
Rattus norvegicus [24] = test: as §2, with “striatum” for “substantia nigra”; assay type: functional, organism-based; conditions: time 42.0 day
Rattus norvegicus [25] = test: as §2, with “P-38” for “ERK1/2”; assay type: functional, organism-based; conditions: time 42.0 day
Rattus norvegicus [26] = test: Anti-inflammatory activity in rotenone-induced male Wistar rat model assessed as reduction in IL-1beta expression level in substantia nigra at 5 mg/kg, ip pretreated with compound every alternative days followed by rotenone addition and measured after 42 days by ELISA; assay type: functional, organism-based; conditions: time 42.0 day
Rattus norvegicus [27] = test: Anti-inflammatory activity in rotenone-induced male Wistar rat model assessed as reduction in COX2 expression level in substantia nigra at 5 mg/kg, ip pretreated with compound every alternative days followed by rotenone addition and measured after 42 days by ELISA; assay type: functional, organism-based; conditions: time 42.0 day
Rattus norvegicus [28] = test: Anti-inflammatory activity in rotenone-induced male Wistar rat model assessed as reduction in PGE2 expression level in substantia nigra at 5 mg/kg, ip pretreated with compound every alternative days followed by rotenone addition and measured after 42 days by ELISA; assay type: functional, organism-based; conditions: time 42.0 day
[29] = Toxicity in male Wistar rat assessed as change in cellular structure of spleen at 1 to 10 mg/kg by H and E staining based analysis; assay type: organism-based; conditions: in vivo, dose 1-10 mg/kg
[30] = Toxicity in male Wistar rat assessed as change in heart morphology at 1 to 10 mg/kg by H and E staining based analysis; assay type: organism-based; conditions: in vivo, dose 1-10 mg/kg
[31] = Toxicity in male Wistar rat assessed as change in liver morphology at 1 to 10 mg/kg by H and E staining based analysis; assay type: organism-based; conditions: in vivo, dose 1-10 mg/kg
[32] = Toxicity in male Wistar rat assessed as change in spleen morphology at 1 to 10 mg/kg by H and E staining based analysis; assay type: organism-based; conditions: in vivo, dose 1-10 mg/kg
[33] = Drug uptake in male Wistar rat brain at 5 mg/kg, ip measured after 6 hrs by HPLC analysis; assay type: ADME, organism-based; conditions: in vivo
SH-SY5Y [34] = test: Neuroprotective activity against rotenone-induced cytotoxicity in human SH-SY5Y cells assessed as increase in number of live cells by measuring mean fluorescence intensity; assay type: functional, cell-based

COc1cc(CCC(=O)N2CCCCC2)cc(OC)c1OC(=O)c1ccccn1
Activity (SH-SY5Y [1]): 81.9%
Activity (SH-SY5Y [2]): Active
Activity (SH-SY5Y [3]): Active
Activity (SH-SY5Y [4]): Active
Activity (SH-SY5Y [5]): Active
Activity (SH-SY5Y [6]): Active
Activity (SH-SY5Y [7]): Active
inhibition [8]: Active
Activity (SH-SY5Y [9]): Active
Activity (Rattus norvegicus [10]): Active
Activity (Rattus norvegicus [11]): Active
Activity (Rattus norvegicus [12]): Active
Activity (Rattus norvegicus [13]): Active
Activity (Rattus norvegicus [14]): Active
Activity (Rattus norvegicus [15]): Active
Activity (Rattus norvegicus [16]): Active
Activity (Rattus norvegicus [17]): Active
Activity (Rattus norvegicus [18]): Active
Activity (Rattus norvegicus [19]): Active
Activity (Rattus norvegicus [20]): Active
Activity (Rattus norvegicus [21]): Active
Activity (Rattus norvegicus [22]): Active
inhibition (Rattus norvegicus [23]): Active
inhibition (Rattus norvegicus [24]): Active
inhibition (Rattus norvegicus [25]): Active
Activity (Rattus norvegicus [26]): Active
Activity (Rattus norvegicus [27]): Active
Activity (Rattus norvegicus [28]): Active
Activity [29]: Non-toxic
Activity [30]: Non-toxic
Activity [31]: Non-toxic
Activity [32]: Non-toxic
Drug uptake [33]: Active
Activity (SH-SY5Y [34]): Active
